Structures can show the parent of a compound that is named as a salt. Where two headings read alike, the source gives them in different places.
Assays:
[1] = target: T1, Recombinant human VAP-1 SSAO (Homo sapiens, UniProt Q16853); assay: In vitro inhibition of VAP-1 SSAO activity (coupled colourimetric method); assay type: biochemical; conditions: for IC50: 1 mM benzylamine, 1 h at 37° C.; for Selectivity for VAP-1 SSAO over MAO: ratio of total rat MAO IC50 to human VAP-1 SSAO IC50
T1 sequence (Q16853 1-763): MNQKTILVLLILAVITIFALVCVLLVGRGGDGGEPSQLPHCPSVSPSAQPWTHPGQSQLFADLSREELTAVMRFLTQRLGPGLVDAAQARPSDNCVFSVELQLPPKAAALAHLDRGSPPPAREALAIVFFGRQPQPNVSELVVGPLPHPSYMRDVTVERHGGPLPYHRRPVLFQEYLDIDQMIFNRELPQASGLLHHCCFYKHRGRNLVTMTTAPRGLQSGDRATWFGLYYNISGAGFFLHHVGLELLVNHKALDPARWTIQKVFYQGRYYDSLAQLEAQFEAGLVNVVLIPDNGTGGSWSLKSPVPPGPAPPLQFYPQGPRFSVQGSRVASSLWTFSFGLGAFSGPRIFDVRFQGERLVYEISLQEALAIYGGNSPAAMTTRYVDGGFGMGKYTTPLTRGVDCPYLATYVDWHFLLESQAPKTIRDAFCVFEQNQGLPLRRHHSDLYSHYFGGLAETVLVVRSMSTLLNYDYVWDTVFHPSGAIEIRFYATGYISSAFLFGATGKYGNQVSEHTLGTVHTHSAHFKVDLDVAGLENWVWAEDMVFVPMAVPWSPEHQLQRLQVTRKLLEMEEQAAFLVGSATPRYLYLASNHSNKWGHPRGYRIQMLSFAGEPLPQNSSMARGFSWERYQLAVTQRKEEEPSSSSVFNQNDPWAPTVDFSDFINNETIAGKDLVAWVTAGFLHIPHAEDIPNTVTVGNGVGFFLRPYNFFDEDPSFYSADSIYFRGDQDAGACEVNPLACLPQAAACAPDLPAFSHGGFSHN
Protocol: VAP-1 SSAO activity was measured using the coupled colourimetric method essentially as described for monoamine oxidase and related enzymes (Holt, A., et al., Anal. Biochem. 244:384-392 (1997)). Recombinant human VAP-1 SSAO expressed in Chinese Hamster Ovary (CHO) cells was used as a source of VAP-1 SSAO for activity measurements. […] These cells and their culture have previously been described (Smith, D. J., et al., J. Exp. Med. 188:17-27 (1998)). A cell lysate was prepared by suspending approximately 3.6×10^8 cells in 25 ml lysis buffer (150 mM NaCl, 10 mM Tris-Base pH 7.2, 1.5 mM MgCl2, 1% NP40) and incubating at 4° C. overnight on a rotating table. The lysate was clarified by centrifugation at 18000 g for 5 min at room temperature and the supernatant used directly in the assay. The VAP-1 SSAO assay was performed in 96 well microtitre plates as follows. To each well was added a predetermined amount of inhibitor if required. […] Controls lacked inhibitor. The inhibitor was in a total volume of 20 μl in water. The following reagents were then added. 0.2 M potassium phosphate buffer pH 7.6 to a total reaction volume of 200 μl, 45 μl of freshly made chromogenic solution containing 1 mM 2,4-dichlorophenol, 500 μM 4-aminoantipyrine and 4 U/ml horseradish peroxidase and an amount of CHO cell lysate containing VAP-1 SSAO that caused a change of 0.6 A490 per h. […] The plates were incubated for 30 min at 37° C. and the background absorbance measured at 490 nm using a Wallac Victor II multilabel counter. To initiate the enzyme reaction 20 μl 10 mM benzylamine (final concentration=1 mM) was added and the plate incubated for 1 h at 37° C. The increase in absorbance, reflecting VAP-1 SSAO activity, was measured at 490 nm. Inhibition was presented as percent inhibition compared to control after correcting for background absorbance and IC50 values calculated using GraphPad Prism.

[2] = lysate of CHO cells expressing recombinant human VAP-1 SSAO, read-out: VAP-1 SSAO inhibitory activity IC50

SMILES	melting point [°C]	IC50 ([1]; VAP-1 SSAO inhibitory activity IC50, lysate of CHO cells expressing recombinant human VAP-1 SSAO) [nM]	Selectivity for VAP-1 SSAO over MAO [1]	IC50 [1, 2] [nM]
C[C@@H]([C@H](O)c1ccccc1)N(C)N (as salt: maleate) [Compound 1, (1R,2S)-2-(1-Methylhydrazino)-1-phenyl-1-propanol hydrogenmaleate]	111 to 113			
C[C@H](C(O)c1ccccc1)N(C)N (single isomer, unassigned) [Compound 48]	112 to 114	280	110	
NNCC(O)c1ccccc1 (single isomer, unassigned) [Compound 49]	99 to 104		70	140
NNCC(O)c1ccccc1 (single isomer, unassigned) [Compound 50]	98 to 103		283	35

Reference: patent US6624202B2, “Inhibitors of copper-containing amine oxidases” (priority 2000, dated 2003)
